Results taken from US7604978B2, “Inhibition of biofilm formation” (Sequoia Sciences, Inc., priority 2004, dated 2009).

Experiments:
Assay type in all cases: cell-based
E. coli K12 [R1drd19] = assay: Inhibition of biofilm formation (biofilm mass, OD540)
Protocol: (§1) Inhibition of biofilm formation by E. coli K12 [R1drd19], P. aeruginosa PAO1, and V harveyi BB120 by the addition of 10 μg/mL ursolic acid. For E. coli K12 [R1drd19], data were collected 16 hours after addition of ursolic acid to a 24 hour biofilm in LB medium; for P. aeruginosa PAO1, data were collected 18 hours after addition of ursolic acid with inoculation in LB medium plus 1% sodium citrate; and for V. harveyi BB120, data were collected 18 hours after addition of ursolic acid with inoculation in M9 medium. All biofilm mass readings at OD540 were normalized based on the reading of wild type without ursolic acid which was normalized to 1. One standard deviation is shown.

P. aeruginosa PAO1 = assay: as above
Protocol: as §1

V. harveyi BB120 = assay: as above
Protocol: as §1

E. coli JM109 = assay: Inhibition of air-liquid interface biofilm; conditions: added with inoculation, E. coli JM109 in LB 0.2% glucose
Protocol: as §1
Example 1 was repeated, except ursolic acid was added with inoculation in E. coli JM109 grown in LB 0.2% glucose.

E. coli K12 genes = assay: DNA microarray, genes repressed by ursolic acid
Protocol: To identify the genes controlled by ursolic acid, E. coli K12 was grown in LB medium overnight, diluted 1:100 in fresh LB supplemented with 0, 10, or 30 μg/mL ursolic acid. The same amount of ethanol was supplemented to eliminate solvent effects. The cultures were grown to an OD600 of 0.9. The cells were centrifuged in a microcentrifuge for 15 seconds at 20,000×g in mini bead beater tubes (Biospec, Bartlesville, Okla.) that were cooled to −80° C. before sampling. The cell pellets were flash frozen in a dry ice-ethanol bath and stored at −80° C. until RNA isolation.
To lyse the cells, 1.0 mL RLT buffer (Qiagen, Inc., Valencia, Calif.) and 0.2 mL 0.1 mm zirconia/silica beads (Biospec) were added to the frozen bead beater tubes containing the cell pellets. The tubes were closed tightly and beat for 30 seconds at the maximum speed in a mini bead beater (cat. no. 3110BX, Biospec). The total RNA was isolated by following the protocol of the RNeasy Mini Kit (Qiagen) including an on-column DNase digestion with RNase-free DNase I (Qiagen). OD260 was used to quantify the RNA yield. OD260/OD280 and 23S/16S rRNA were measured using a 2100 Bioanalyzer (Agilent Technologies, Palo Alto, Calif.) to check the purity and integrity of RNA (RNeasy Mini handbook, Qiagen).
The E. coli DNA microarrays were prepared as described previously by Wei, Y. et al (Journal of Bacteriology, 2001, 183 (2) p. 545-556). Each gene probe was synthesized by PCR and has the size of the full open reading frame (200-2000 nt). The double-strand PCR products were denatured in 50% dimethyl sulfoxide and spotted onto aminosilane slides (Full Moon Biosystems, Sunnyvale, Calif.) as probes to hybridize with the mRNA-derived cDNA samples. It has been shown that each array can detect 4228 of the 4290 E. coli ORFs. Each gene has two spots per slide.
Briefly, the total RNA from the E. coli K12 samples grown with and without ursolic acid was first converted into labeled cDNA. […] The Cy3-labeled sample without ursolic acid and the Cy5-labeled ursolic acid sample (with 10 or 30 μg/mL ursolic acid) were hybridized on the first slide. Similarly, the Cy5-labeled sample without ursolic acid and the Cy3-labeled ursolic acid sample were hybridized on the second slide. Since each gene has two spots on a slide, the two hybridizations generated eight data points for each gene (four points for the sample without ursolic acid and four points for the ursolic acid sample). The microarray experiments with dye-swapping were repeated for both concentrations of ursolic acid.
The DNA microarrays were incubated in prehybridization solution (3.5×SSC [1×SSC is 0.15 M NaCl plus 0.015 M sodium citrate] [Invitrogen], 0.1% sodium dodecyl sulfate [SDS] [Invitrogen], and 0.1% bovine serum albumin [Invitrogen]) at 45° C. for 20 min. The arrays were rinsed with double-distilled water and were spun dry by centrifugation. Labeled cDNA (6 μg) was concentrated to 10 μl of total volume and was mixed with 10 μl of 4×cDNA hybridization solution (Full Moon Biosystems) and 20 μl of formamide (EM Science, Gibbstown, N.J.). The hybridization mix was heated to 95° C. for 2 min and was added to the DNA microarrays; each array was covered with a coverslip (Corning, Big Flats, N.Y.) and was incubated overnight at 37° C. for hybridization. When the hybridization was finished, the coverslips were removed in 1×SSC-0.1% SDS at room temperature, and the arrays were washed once for 5 min in 1×SSC-0.1% SDS at 40° C., twice for 10 min in 0.1×SSC-0.1% SDS at 40° C., and twice for 1 min in 0.1×SSC at 40° C. The arrays were quickly rinsed by dipping in room-temperature double-distilled water and were then spun dry by centrifugation. The hybridized slides were scanned with the Generation III Array Scanner (Molecular Dynamics Corp.). Readings at 570 and 670 nm was used to quantify the probes labeled with Cy3 and Cy5 separately. The signal was quantified with Array Vision 4.0 or 6.0 software (Imaging Research, St. Catherines, Ontario, Canada). […]

In the case of `C[C@H]1[C@H](C)CC[C@]2(C(=O)O)CC[C@]3(C)C(=CC[C@@H]4[C@@]5(C)CC[C@H](O)C(C)(C)[C@@H]5CC[C@]43C)[C@H]12` [ursolic acid], the formation of biofilms (E. coli K12 [R1drd19]) is reported as “reduces or inhibits the formation of biofilms”, the formation of biofilms (P. aeruginosa PAO1) is reported as “reduces or inhibits the formation of biofilms” and the formation of biofilms (V. harveyi BB120) is reported as “reduces or inhibits the formation of biofilms”. For the same molecule, the air-liquid interface biofilm (E. coli JM109) was “inhibited air-liquid interface biofilm”, the “ER (expression ratio) gene arsC” value (E. coli K12 genes; 10 μg/mL ursolic acid) was −1.5 and the “ER (expression ratio) gene b0309” value (E. coli K12 genes; 10 μg/mL ursolic acid) was −1.7. For the same molecule, the “ER (expression ratio) gene b0484” value (E. coli K12 genes; 10 μg/mL ursolic acid) was −1.5, the “ER (expression ratio) gene b0485” value (E. coli K12 genes; 10 μg/mL ursolic acid) was −1.8 and the “ER (expression ratio) gene b0829” value (E. coli K12 genes; 10 μg/mL ursolic acid) was −1.5. For the same molecule, the “ER (expression ratio) gene b1729” value (E. coli K12 genes; 10 μg/mL ursolic acid) was −5.6, the “ER (expression ratio) gene b2379” value (E. coli K12 genes; 10 μg/mL ursolic acid) was −1.5 and the “ER (expression ratio) gene b2789” value (E. coli K12 genes; 10 μg/mL ursolic acid) was −1.9. The “ER (expression ratio) gene cspF” value (E. coli K12 genes; 10 μg/mL ursolic acid) was −1.6, the “ER (expression ratio) gene cspG” value (E. coli K12 genes; 10 μg/mL ursolic acid) was −2.5 and the “ER (expression ratio) gene cysB” value (E. coli K12 genes; 10 μg/mL ursolic acid) was −1.7. The “ER (expression ratio) gene cysD” value (E. coli K12 genes; 10 μg/mL ursolic acid) was −2.5, the “ER (expression ratio) gene cysI” value (E. coli K12 genes; 10 μg/mL ursolic acid) was −1.5 and the “ER (expression ratio) gene cysJ” value (E. coli K12 genes; 10 μg/mL ursolic acid) was −3.6. The “ER (expression ratio) gene cysK” value (E. coli K12 genes; 10 μg/mL ursolic acid) was −3.6, the “ER (expression ratio) gene frvR” value (E. coli K12 genes; 10 μg/mL ursolic acid) was −5.4 and the “ER (expression ratio) gene gntU_1” value (E. coli K12 genes; 10 μg/mL ursolic acid) was −1.5. For the same molecule, the “ER (expression ratio) gene hdeA” value (E. coli K12 genes; 10 μg/mL ursolic acid) was −1.7, the “ER (expression ratio) gene hdeB” value (E. coli K12 genes; 10 μg/mL ursolic acid) was −1.8 and the “ER (expression ratio) gene narH” value (E. coli K12 genes; 10 μg/mL ursolic acid) was −1.6. The “ER (expression ratio) gene pheM” value (E. coli K12 genes; 10 μg/mL ursolic acid) was −1.6, the “ER (expression ratio) gene pheP” value (E. coli K12 genes; 10 μg/mL ursolic acid) was −1.5 and the “ER (expression ratio) gene rimL” value (E. coli K12 genes; 10 μg/mL ursolic acid) was −1.5. The “ER (expression ratio) gene rmf” value (E. coli K12 genes; 10 μg/mL ursolic acid) was −1.5, the “ER (expression ratio) gene rpml” value (E. coli K12 genes; 10 μg/mL ursolic acid) was −1.6 and the “ER (expression ratio) gene slp” value (E. coli K12 genes; 10 μg/mL ursolic acid) was −1.5. For the same molecule, the “ER (expression ratio) gene ugpB” value (E. coli K12 genes; 10 μg/mL ursolic acid) was −1.4, the “ER (expression ratio) gene ybhG” value (E. coli K12 genes; 10 μg/mL ursolic acid) was −1.4 and the “ER (expression ratio) gene ybiK” value (E. coli K12 genes; 10 μg/mL ursolic acid) was −2.4. The “ER (expression ratio) gene yeeD” value (E. coli K12 genes; 10 μg/mL ursolic acid) was −2.3, the “ER (expression ratio) gene yeeE” value (E. coli K12 genes; 10 μg/mL ursolic acid) was −13 and the “ER (expression ratio) gene yhaD” value (E. coli K12 genes; 10 μg/mL ursolic acid) was −1.6. The “ER (expression ratio) gene yhaF” value (E. coli K12 genes; 10 μg/mL ursolic acid) was −1.5, the “ER (expression ratio) gene yhaG” value (E. coli K12 genes; 10 μg/mL ursolic acid) was −2 and the “ER (expression ratio) gene yhaU” value (E. coli K12 genes; 10 μg/mL ursolic acid) was −1.9. For the same molecule, the “ER (expression ratio) gene yjeB” value (E. coli K12 genes; 10 μg/mL ursolic acid) was −1.4, the “ER (expression ratio) gene arsC” value (E. coli K12 genes; 30 μg/mL ursolic acid) was 1.4 and the “ER (expression ratio) gene b0309” value (E. coli K12 genes; 30 μg/mL ursolic acid) was −1.3. The “ER (expression ratio) gene b0484” value (E. coli K12 genes; 30 μg/mL ursolic acid) was −1.1, the “ER (expression ratio) gene b0485” value (E. coli K12 genes; 30 μg/mL ursolic acid) was −1.3 and the “ER (expression ratio) gene b0829” value (E. coli K12 genes; 30 μg/mL ursolic acid) was −1.5. The “ER (expression ratio) gene b1729” value (E. coli K12 genes; 30 μg/mL ursolic acid) was −2, the “ER (expression ratio) gene b2379” value (E. coli K12 genes; 30 μg/mL ursolic acid) was 1 and the “ER (expression ratio) gene b2789” value (E. coli K12 genes; 30 μg/mL ursolic acid) was −2.5. For the same molecule, the “ER (expression ratio) gene cspF” value (E. coli K12 genes; 30 μg/mL ursolic acid) was −1.1, the “ER (expression ratio) gene cspG” value (E. coli K12 genes; 30 μg/mL ursolic acid) was −1.7 and the “ER (expression ratio) gene cysB” value (E. coli K12 genes; 30 μg/mL ursolic acid) was −1.4. The “ER (expression ratio) gene cysD” value (E. coli K12 genes; 30 μg/mL ursolic acid) was −2.5, the “ER (expression ratio) gene cysI” value (E. coli K12 genes; 30 μg/mL ursolic acid) was −1.7 and the “ER (expression ratio) gene cysJ” value (E. coli K12 genes; 30 μg/mL ursolic acid) was −3.3. The “ER (expression ratio) gene cysK” value (E. coli K12 genes; 30 μg/mL ursolic acid) was −3.3, the “ER (expression ratio) gene frvR” value (E. coli K12 genes; 30 μg/mL ursolic acid) was −2 and the “ER (expression ratio) gene gntU_1” value (E. coli K12 genes; 30 μg/mL ursolic acid) was −1.4. For the same molecule, the “ER (expression ratio) gene hdeA” value (E. coli K12 genes; 30 μg/mL ursolic acid) was −1.4, the “ER (expression ratio) gene hdeB” value (E. coli K12 genes; 30 μg/mL ursolic acid) was −1.4 and the “ER (expression ratio) gene narH” value (E. coli K12 genes; 30 μg/mL ursolic acid) was −1.4. For the same molecule, the “ER (expression ratio) gene pheM” value (E. coli K12 genes; 30 μg/mL ursolic acid) was 1, the “ER (expression ratio) gene pheP” value (E. coli K12 genes; 30 μg/mL ursolic acid) was −1.1 and the “ER (expression ratio) gene rimL” value (E. coli K12 genes; 30 μg/mL ursolic acid) was 1. For the same molecule, the “ER (expression ratio) gene rmf” value (E. coli K12 genes; 30 μg/mL ursolic acid) was 1, the “ER (expression ratio) gene rpml” value (E. coli K12 genes; 30 μg/mL ursolic acid) was 1 and the “ER (expression ratio) gene slp” value (E. coli K12 genes; 30 μg/mL ursolic acid) was −1.6. The “ER (expression ratio) gene ugpB” value (E. coli K12 genes; 30 μg/mL ursolic acid) was −1.5, the “ER (expression ratio) gene ybhG” value (E. coli K12 genes; 30 μg/mL ursolic acid) was −1.4 and the “ER (expression ratio) gene ybiK” value (E. coli K12 genes; 30 μg/mL ursolic acid) was -2.2. For the same molecule, the “ER (expression ratio) gene yeeD” value (E. coli K12 genes; 30 μg/mL ursolic acid) was −1.4, the “ER (expression ratio) gene yeeE” value (E. coli K12 genes; 30 μg/mL ursolic acid) was −2 and the “ER (expression ratio) gene yhaD” value (E. coli K12 genes; 30 μg/mL ursolic acid) was −2.6. For the same molecule, the “ER (expression ratio) gene yhaF” value (E. coli K12 genes; 30 μg/mL ursolic acid) was −2.4, the “ER (expression ratio) gene yhaG” value (E. coli K12 genes; 30 μg/mL ursolic acid) was −2.2 and the “ER (expression ratio) gene yhaU” value (E. coli K12 genes; 30 μg/mL ursolic acid) was −4.2. For the same molecule, the “ER (expression ratio) gene yjeB” value (E. coli K12 genes; 30 μg/mL ursolic acid) was 1.
